Data taken from PMC9181126, “Design, Synthesis, Molecular Docking Analysis and Biological Evaluations of 4-[(Quinolin-4-yl)amino]benzamide Derivatives as Novel Anti-Influenza Virus Agents” (International Journal of Molecular Sciences, 2022).

What was measured:
MDCK cells = test: in vitro; format: cell-based, canine; settings: dog, 72 h
Outline: (§1)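 Cells were seeded and compound medium added after 48 h, then incubated 72 h at 37 °C, 5% CO2. Viability was measured by MTT (4 h), then solubilization and absorbance at 620 nm after a further 3 h. DMSO-only wells were taken as 100% viable.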

in vitro [1] = format: cell-based, canine; settings: dog
Outline: as §1

[2] = molecular target: ribonucleoprotein (RNP) of influenza virus (Influenza A virus, UniProt P15659); test: cell-based; settings: HEK-293T, read-out: RNP Reconstitution Assay Inhibition Rate; for inhibition at 100 µM: concentration 100 µM
[3] = tested on: influenza virus A/WSN/33 (H1N1); test: Plaque inhibition assay in MDCK cells; format: cell-based; settings: MDCK; concentration 100 µM; read-out: Plaque Inhibition Assay (A/WSN/33, H1N1) Inhibition Rate
HEK293T cells = test: in vitro; format: cell-based; settings: human, 72 h
Outline: as §1

in vitro [4] = format: cell-based; settings: human
Outline: as §1

[5] = tested on: influenza virus A/WSN/33 (H1N1); test: microbe, parasite or virus in culture; format: cell-based; settings: MDCK, 72 h; for inhibition at 12.5 µM / inhibition at 25 µM / inhibition at 50 µM / inhibition at 100 µM: H1N1|WSN, read-out: Antiviral activity in CPE assay; for EC50: read-out: Cytopathic Effect Assay (A/WSN/33, H1N1) EC50

Row | Structure (SMILES) | MDCK cells survival rate (MDCK cells; 12.5 µmol·L−1) | MDCK cells survival rate (MDCK cells; 25 µmol·L−1) | MDCK cells survival rate (MDCK cells; 50 µmol·L−1) | MDCK cells survival rate (MDCK cells; 100 µmol·L−1) | CC50 at 72 h (in vitro [1]) | inhibition at 100 µM [2] | inhibition at 100 µM [3] | HEK293T cells survival rate (HEK293T cells; 3.125 µmol·L−1) | HEK293T cells survival rate (HEK293T cells; 6.25 µmol·L−1) | HEK293T cells survival rate (HEK293T cells; 12.5 µmol·L−1) | HEK293T cells survival rate (HEK293T cells; 25 µmol·L−1) | HEK293T cells survival rate (HEK293T cells; 50 µmol·L−1) | HEK293T cells survival rate (HEK293T cells; 100 µmol·L−1) | CC50 at 72 h (in vitro [4]) | melting point | inhibition at 12.5 µM [5] | inhibition at 25 µM [5] | inhibition at 50 µM [5] | inhibition at 100 µM [5] | EC50 [5] | also measured
1 | CCNC(=O)c1ccc(Nc2ccnc3cc(C(F)(F)F)ccc23)cc1 [Compound G01, N-Ethyl-4-{[7-(trifluoromethyl)quinolin-4-yl]amino}benzamide] | 123.45±5.51% | 112.08±3.35% | 121.65±8.73% | 160.62±4.70% | > 100 µM | 21% | 81.6% | 91.00±7.40% | 90.01±2.87% | 93.22±5.27% | 92.83±4.26% | 88.18±3.27% | 94.92±8.61% | > 100 µM | 262.8 to 264.5 °C | 48 ± 4.04% | 56.6 ± 3.96% | 53 ± 4.28% | 70.9 ± 2.63% | 16.5 ± 5.57 µM | –
2 | CC(C)NC(=O)c1ccc(Nc2ccnc3cc(C(F)(F)F)ccc23)cc1 [Compound G02, N-Isopropyl-4-{[7-(trifluoromethyl)quinolin-4-yl]amino}benzamide] | 153.38±36.06% | 137.54±0.71% | 140.08±12.49% | 203.79±6.42% | > 100 µM | 3.1% | < 10% | 95.91±3.00% | 87.90±2.52% | 85.31±11.55% | 74.04±2.91% | 75.54±11.17% | 66.13±2.32% | > 100 µM | 243.7 to 245.9 °C | 53.6 ± 3.38% | 61.6 ± 2.13% | 76.7 ± 2.26% | 80.6 ± 9.03% | 10.1 ± 1.66 µM | –
3 | O=C(NCCO)c1ccc(Nc2ccnc3cc(C(F)(F)F)ccc23)cc1 [Compound G04, N-(2-Hydroxyethyl)-4-{[7-(trifluoromethyl)quinolin-4-yl]amino}benzamide] | 118.54±1.29% | 110.54±13.59% | 126.43±7.03% | 124.89±12.49% | > 100 µM | 14% | 59.3% | 112.00±4.22% | 100.01±1.56% | 94.50±4.33% | 91.99±5.43% | 98.62±11.78% | 96.30±10.52% | > 100 µM | 262.5 to 264.1 °C | 55.3 ± 4.28% | 54.6 ± 4.19% | 57.1 ± 9.3% | 49.3 ± 0.74% | > 100 µM | –
4 | O=C(NCCCO)c1ccc(Nc2ccnc3cc(C(F)(F)F)ccc23)cc1 [Compound G05, N-(3-Hydroxypropyl)-4-{[7-(trifluoromethyl)quinolin-4-yl]amino}benzamide] | 113.26±1.76% | 110.22±4.44% | 101.63±4.85% | 111.87±2.49% | > 100 µM | 17.6% | 82.9% | 106.06±4.46% | 109.11±25.17% | 96.82±2.21% | 95.07±1.76% | 93.06±1.61% | 122.90±10.09% | > 100 µM | 249.6 to 250.4 °C | 42 ± 5.5% | 48.6 ± 2.31% | 50.2 ± 1.8% | 56 ± 4.37% | 40.9 ± 5.64 µM | –
5 | O=C(c1ccc(Nc2ccnc3cc(C(F)(F)F)ccc23)cc1)N1CCOCC1 [Compound G12, Morpholino{4-{[7-(trifluoromethyl)quinolin-4-yl]amino}phenyl}methanone] | 92.77±4.37% | 137.81±3.21% | 130.46±5.65% | 120.48±10.37% | > 100 µM | 50% | < 10% | 100.47±5.92% | 89.50±2.30% | 86.67±6.98% | 88.50±7.54% | 80.68±3.36% | 74.00±4.57% | > 100 µM | 277.9 to 278.7 °C | 70.9 ± 4.82% | 97.6 ± 3.67% | 75.7 ± 9.49% | 76.7 ± 5.27% | > 100 µM | –
6 | O=C(c1ccc(Nc2ccnc3cc(C(F)(F)F)ccc23)cc1)N1CCN(c2ccc(Cl)cc2)CC1 [Compound G17, [4-(4-Chlorophenyl)piperazin-1-yl]{4-{[7-(trifluoromethyl)quinolin-4-yl]amino}phenyl}methanone] | 71.49±1.03% | 65.78±1.15% | 63.22±11.25% | 51.32±5.29% | > 100 µM | – | 73.5% | 86.81±4.81% | 89.66±6.31% | 78.02±11.06% | 62.61±12.04% | 52.36±1.02% | 59.17±1.33% | > 100 µM | 242 to 242.9 °C | 33.5 ± 1.23% | 27.3 ± 3.16% | 21.1 ± 1.62% | 28.5 ± 7.81% | > 100 µM | inhibition at 12.5 µM ([2]; concentration 12.5 µM): 40.2%
7 | COc1ccccc1OCCNC(=O)c1ccc(Nc2ccnc3ccccc23)cc1 [Compound G19, N-{2-(2-Methoxyphenoxy)ethyl}-4-(quinolin-4-ylamino)benzamide] | 90.89±5.31% | 93.23±8.08% | 102.17±1.95% | 111.55±9.83% | > 100 µM | 13.9% | 82.3% | 103.14±6.28% | 103.54±9.29% | 103.11±7.45% | 97.97±3.74% | 97.40±3.36% | 112.18±7.45% | > 100 µM | 319.5 to 320.2 °C | 131 ± 11.1% | 132 ± 4.75% | 138 ± 9.95% | 122 ± 5.08% | < 10 µM | –
